# Source: BindingDB's records for doi:10.1016/j.bioorg.2015.08.001 (Universiti Teknologi Mara (Uitm), 2015)
# Molecular target: Carbonic anhydrase 2 (Bos taurus, UniProt P00921)
# Test: Carbonic Anhydrase (CA) II Inhibition Assay
# Details: pH 7.2
# Experimental: This was assay performed using buffer containing Tris and HEPES at the pH of 7.2-7.9 and a total concentration of 20 mM. 96-well plates were filled with 140 µL of Tris-HEPES solution, 20 µL of bovine erythrocyte carbonic anhydrase II solution (0.1-0.2 mg/2000 mL), and 20 µL of 0.7 mM para-nitrophenyl acetate (diluted in ethanol). Test compounds were incubated at 25-28 °C for 15 min prior to addition of para-nitrophenyl acetate, which starts the reaction. The reaction was allowed to take place for 30 min at 25-28 °C. All compounds tested in triplicate at different concentration. Amount of product that forms during the reaction monitored at 400 nm after 30 min.
# Sequence of Carbonic anhydrase 2 (P00921 whole entry): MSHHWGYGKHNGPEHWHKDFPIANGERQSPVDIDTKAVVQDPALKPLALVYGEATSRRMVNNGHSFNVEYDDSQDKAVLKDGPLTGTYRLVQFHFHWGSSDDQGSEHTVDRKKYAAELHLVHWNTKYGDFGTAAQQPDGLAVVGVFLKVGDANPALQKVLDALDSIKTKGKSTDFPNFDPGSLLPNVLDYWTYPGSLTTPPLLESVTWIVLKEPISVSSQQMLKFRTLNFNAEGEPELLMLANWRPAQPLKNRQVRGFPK
row,SMILES,IC50 [µM]
1,S=C(Nc1ccc(C(c2c[nH]c3ccccc23)c2c[nH]c3ccccc23)cc1)Nc1cccc(Br)c1,131
2,CCOC(=O)NC(=S)Nc1ccc(C(c2c[nH]c3ccc(Br)cc23)c2c[nH]c3ccc(Br)cc23)cc1 [Name not given],70.4
3,CCOC(=O)NC(=S)Nc1ccc(C(c2c[nH]c3ccc(Cl)cc23)c2c[nH]c3ccc(Cl)cc23)cc1 [Name not given],137
4,O=[N+]([O-])c1ccc(NC(=S)Nc2ccc(C(c3c[nH]c4ccccc34)c3c[nH]c4ccccc34)cc2)cc1 [Name not given],45.9
5,S=C(Nc1ccc(C(c2c[nH]c3ccc(Cl)cc23)c2c[nH]c3ccc(Cl)cc23)cc1)Nc1cc(Cl)ccc1Cl [Name not given],139
6,S=C(Nc1ccc(C(c2c[nH]c3ccc(Cl)cc23)c2c[nH]c3ccc(Cl)cc23)cc1)Nc1cccc(Cl)c1 [Name not given],54.4
7,S=C(Nc1ccc(C(c2c[nH]c3ccccc23)c2c[nH]c3ccccc23)cc1)Nc1cc(Cl)ccc1Cl [Name not given],68.3
8,S=C(Nc1ccc(C(c2c[nH]c3ccccc23)c2c[nH]c3ccccc23)cc1)Nc1cccc(Cl)c1 [Name not given],112

# Stronger by IC50, values ahead:
row,IC50 [µM],SMILES
1,44.1,Cc1cccc2c(C(c3ccc(NC(=S)Nc4ccc([N+](=O)[O-])cc4)cc3)c3c[nH]c4c(C)cccc34)c[nH]c12 [1-(4-(Bis(7-methyl-1H-indol-3-yl)methyl)phenyl)-3-(4-nitrophenyl)thiourea (3u)]
2,32.9,O=[N+]([O-])c1ccc(NC(=S)Nc2cccc(C(c3c[nH]c4ccccc34)c3c[nH]c4ccccc34)c2)cc1 [1-(4-Nitrophenyl)-3-(3-(di(1H-indol-3-yl)methyl)phenyl)thiourea (4d)]
3,32.3,O=[N+]([O-])c1ccc(NC(=S)Nc2ccc(C(c3c[nH]c4ccc(Br)cc34)c3c[nH]c4ccc(Br)cc34)cc2)cc1 [Name not given]
4,39.7,O=[N+]([O-])c1ccc(NC(=S)Nc2ccc(C(c3c[nH]c4ccc(Cl)cc34)c3c[nH]c4ccc(Cl)cc34)cc2)cc1 [Name not given]
5,33,S=C(Nc1ccc(C(c2c[nH]c3ccc(Br)cc23)c2c[nH]c3ccc(Br)cc23)cc1)Nc1cc(Cl)ccc1Cl [Name not given]
6,30.1,S=C(Nc1ccc(C(c2c[nH]c3ccc(Br)cc23)c2c[nH]c3ccc(Br)cc23)cc1)Nc1cccc(Br)c1 [Name not given]
7,42.9,S=C(Nc1ccc(C(c2c[nH]c3ccc(Br)cc23)c2c[nH]c3ccc(Br)cc23)cc1)Nc1cccc(Cl)c1 [Name not given]
